Source: paper PMC8234244, “Virtual Evolution of HVEM Segment for Checkpoint Inhibitor Discovery” (International Journal of Molecular Sciences, 2021)
Residues, ends and D or L forms follow the SMILES beside them.

T1: recombinant BTLA-Fc protein (B and T lymphocyte attenuator) (UniProt Q7Z6A9 31-137)
T1 construct: B and T lymphocyte attenuator (BTLA); source: recombinant
T1 sequence: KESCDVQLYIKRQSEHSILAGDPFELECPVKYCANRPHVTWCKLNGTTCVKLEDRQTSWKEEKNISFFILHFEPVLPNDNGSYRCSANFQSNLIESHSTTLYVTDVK

T2: BTLA-Fc (Homo sapiens, UniProt Q7Z6A9)
T2 construct: Fc
T2 sequence (Q7Z6A9 31-157 limits assumed): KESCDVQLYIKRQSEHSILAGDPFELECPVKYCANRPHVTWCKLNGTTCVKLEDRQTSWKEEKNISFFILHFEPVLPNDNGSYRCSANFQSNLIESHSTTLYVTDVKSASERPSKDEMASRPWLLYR


What follows are molecules tested on BTLA/HVEM binding (BTLA-Fc coated, HVEM-biotin) (assay: Competitive ELISA, peptides against Biotin-HVEM for BTLA). Settings: 1 mg/mL peptide, 12 h at room temperature; peptides with response value under 85% of the control were selected; absorbance 630 nm.
Text: Though computational methods provided certain guidelines for picking the mutations, they are not 100% accurate since simplified models were used, like ignoring the possible conformation changes caused by mutations. Thus, the wet-lab examination is necessary to confirm their inhibition effects. The library containing predicted peptides was synthesized by solid phase peptide synthesis (SPPS) method with Fmoc strategy. We used competitive ELISA for the screen to ensure the positive peptides selectively binds in situ on the BTLA/HVEM interface. Biotin-HVEM was used as the signal reporter. Peptides with strong binding of BTLA will compete with Biotin-HVEM and result in lower signal. A primary screen was carried out by using 1 mg/mL of each peptide and those with response value under 85% of the control were selected for further characterization (Figure 2a).
96-well EIA/RIA plates (High Binding, Corning Incorporated) were coated with 350 ng/well of recombinant BTLA-Fc protein in PBS (50 µL/well), incubating at 37 °C overnight until the solutions evaporate completely. Methanol was added for protein fixation and the wells were blocked with 5% BSA in PBS (200 µL/well). The peptides in DMSO were diluted into 1 mg/mL in PBS (50 µL/well) and incubated 12 h at room temperature. Wells were washed six times with PBST (phosphate buffer saline with 0.1% Tween-20, pH 7.4). Different concentrations of recombinant HVEM-biotin protein (50 µL/well) was added and incubated for 2 h at room temperature. Wells were washed six times with PBS. Horseradish peroxidase (HRP) labeled Streptavidin was finally added at a 1/5000 dilution in PBS and incubated for 2 h at room temperature. 3, 3′, 5, 5′,-tetramethylbenzidine (TMB, Beyotime) was used for color development. The absorbance was read at 630 nm using Microplate Reader. Statistical analysis of the results was performed using GraphPad Prism 7 software.

Molecule | Inhibition in preliminary competitive ELISA screen
CC(=O)N[C@@H](CCCCN)C(=O)N1CCC[C@H]1C(=O)N[C@@H](C)C(=O)N[C@@H](CS)C(=O)NCC(=O)N[C@@H](CCC(=O)O)C(=O)N[C@@H](CC(C)C)C(=O)N[C@H](C(=O)NCC(=O)N[C@H](C(=O)N[C@H](C(=O)N[C@@H](CS)C(=O)N[C@@H](Cc1ccccc1)C(N)=O)C(C)C)[C@@H](C)O)[C@@H](C)O [DP2] (Ac-KPACGELTGTVCF-NH2) | showed inhibition
Ac-KEACGDLTGTVCE-NH2 [SP6, single mutant E31D of HVEM (26–38)] | showed inhibition
Ac-KEACGELPGTVCE-NH2 [SP7, single mutant T33P of HVEM (26–38)] | showed inhibition
Ac-KKACGELTGTVCF-NH2 [DP3, double mutant E27K E38F of HVEM (26–38)] | showed inhibition
Ac-KPACGELTGTVCE-NH2 [SP3, single mutant E27P of HVEM (26–38)] | showed inhibition

Same assay, conditions: competitive ELISA, dose dependent; 1 mg/mL peptide, HVEM-biotin titrated; qualitative comparison

Molecule | Inhibition of BTLA/HVEM binding, titration of peptide-BTLA with different concentrations of HVEM
CC(=O)N[C@@H](Cc1ccc(O)cc1)C(=O)N[C@@H](CCCNC(=N)N)C(=O)N[C@H](C(=O)N[C@@H](CCCCN)C(=O)N1CCC[C@H]1C(=O)N[C@@H](C)C(=O)N[C@@H](CS)C(=O)NCC(=O)N[C@@H](CCC(=O)O)C(=O)N[C@@H](CC(C)C)C(=O)N[C@H](C(=O)NCC(=O)N[C@H](C(=O)N[C@H](C(=O)N[C@@H](CS)C(=O)N[C@@H](Cc1ccccc1)C(=O)N1CCC[C@H]1C(N)=O)C(C)C)[C@@H](C)O)[C@@H](C)O)C(C)C [DP2-E1] (Ac-YRVKPACGELTGTVCFP-NH2) | higher affinity than the native ones
CC(=O)N[C@@H](CCC(=O)O)C(=O)N[C@@H](CO)C(=O)N[C@@H](CS)C(=O)N1CCC[C@H]1C(=O)N[C@@H](CCCCN)C(=O)N[C@@H](CS)C(=O)N[C@@H](CO)C(=O)N1CCC[C@H]1C(=O)NCC(=O)N[C@@H](Cc1ccc(O)cc1)C(=O)N[C@@H](CCCNC(=N)N)C(=O)N[C@H](C(=O)N[C@@H](CCCCN)C(=O)N1CCC[C@H]1C(=O)N[C@@H](C)C(=O)N[C@@H](CS)C(=O)NCC(=O)N[C@@H](CCC(=O)O)C(=O)N[C@@H](CC(C)C)C(=O)N[C@H](C(=O)NCC(=O)N[C@H](C(=O)N[C@H](C(=O)N[C@@H](CS)C(=O)N[C@@H](Cc1ccccc1)C(=O)N1CCC[C@H]1C(N)=O)C(C)C)[C@@H](C)O)[C@@H](C)O)C(C)C [DP2-E2] (Ac-ESCPKCSPGYRVKPACGELTGTVCFP-NH2) | higher affinity than the native ones
CC(=O)N[C@@H](CCCCN)C(=O)N1CCC[C@H]1C(=O)N[C@@H](C)C(=O)N[C@@H](CS)C(=O)NCC(=O)N[C@@H](CCC(=O)O)C(=O)N[C@@H](CC(C)C)C(=O)N[C@H](C(=O)NCC(=O)N[C@H](C(=O)N[C@H](C(=O)N[C@@H](CS)C(=O)N[C@@H](Cc1ccccc1)C(N)=O)C(C)C)[C@@H](C)O)[C@@H](C)O [DP2] (Ac-KPACGELTGTVCF-NH2) | showed the best inhibitory effects
CC(=O)N[C@@H](CCC(=O)O)C(=O)N[C@@H](CO)C(=O)N[C@@H](CS)C(=O)N1CCC[C@H]1C(=O)N[C@@H](CCCCN)C(=O)N[C@@H](CS)C(=O)N[C@@H](CO)C(=O)N1CCC[C@H]1C(=O)NCC(=O)N[C@@H](Cc1ccc(O)cc1)C(=O)N[C@@H](CCCNC(=N)N)C(=O)N[C@H](C(=O)N[C@@H](CCCCN)C(=O)N[C@@H](CCC(=O)O)C(=O)N[C@@H](C)C(=O)N[C@@H](CS)C(=O)NCC(=O)N[C@@H](CCC(=O)O)C(=O)N[C@@H](CC(C)C)C(=O)N[C@H](C(=O)NCC(=O)N[C@H](C(=O)N[C@H](C(=O)N[C@@H](CS)C(=O)N[C@@H](CCC(=O)O)C(=O)N1CCC[C@H]1C(N)=O)C(C)C)[C@@H](C)O)[C@@H](C)O)C(C)C [P0-E2, reference compound] (Ac-ESCPKCSPGYRVKEACGELTGTVCEP-NH2; N-terminus and C-terminus assumed) | more potency than P0
Ac-KEACGELTGTVCE-NH2 [P0, reference compound] | demonstrated little inhibition

Each molecule was assayed against T1, recombinant BTLA-Fc protein (B and T …) (assay: SPR; Biacore T100, CM5 chip; BTLA-Fc coupled by EDC/NHS; peptides injected at 30 µL/min in PBS with 2% DMSO; static (fast dissociation) or kinetic (slow dissociation) model). Settings: both partners purified.

Molecule | Kd [µM]
Ac-ESCPKCSPGYRVKPACGELTGTVCFP-NH2 (cysteine pairing not given here, HVEM residues 14-39 with the DP2 mutations E27P and E38F; also called extended DP2 (26 aa); source: synthetic peptide (SPPS, Fmoc; Jiangsu Shenlang Biotech)) [DP2-E2] | 0.00146
Ac-YRVKEACGELTGTVCEP-NH2 (cysteine pairing not given here) [P0-E1] | 9930
Ac-KPACGELTGTVCF-NH2 (cysteine pairing not given here, HVEM residues 26-38 with E27P and E38F; source: synthetic peptide (SPPS, Fmoc; Jiangsu Shenlang Biotech)) [DP2 E27P E38F] | 1750
Ac-ESCPKCSPGYRVKEACGELTGTVCEP-NH2 (cysteine pairing not given here) [P0-E2] | 94.1
Ac-YRVKPACGELTGTVCFP-NH2 (cysteine pairing not given here, HVEM residues 23-39 with the DP2 mutations E27P and E38F; also called extended DP2 (17 aa); source: synthetic peptide (SPPS, Fmoc; Jiangsu Shenlang Biotech)) [DP2-E1] | 3040

These molecules were tested against T2, BTLA-Fc (assay: Surface plasmon resonance (SPR), binding of peptides to BTLA). Settings: qualitative statement in running text.
Description: The SPR assay was conducted using Biacore T100 system with Sensor Chip CM5 (Cytiva, Marlborough, MA, USA). BTLA-Fc was conjugated to the chips with EDC/NHS coupling in NaAc buffer. The assay was performed in PBS buffer with 2% DMSO. The buffer calibration was conducted by mixing different volume of buffers with 1.5% or 2.8% DMSO. Various concentrations of the peptides were injected and flow through the chip at 30 µL/min. The signals were recorded and analyzed with either static (for fast dissociation) or kinetic (for slow dissociation) model.

Molecule | Binding to BTLA in words
CC(=O)N[C@@H](Cc1ccc(O)cc1)C(=O)N[C@@H](CCCNC(=N)N)C(=O)N[C@H](C(=O)N[C@@H](CCCCN)C(=O)N1CCC[C@H]1C(=O)N[C@@H](C)C(=O)N[C@@H](CS)C(=O)NCC(=O)N[C@@H](CCC(=O)O)C(=O)N[C@@H](CC(C)C)C(=O)N[C@H](C(=O)NCC(=O)N[C@H](C(=O)N[C@H](C(=O)N[C@@H](CS)C(=O)N[C@@H](Cc1ccccc1)C(=O)N1CCC[C@H]1C(N)=O)C(C)C)[C@@H](C)O)[C@@H](C)O)C(C)C [DP2-E1] (Ac-YRVKPACGELTGTVCFP-NH2) | binds slightly tighter than P0-E1, however weaker than DP2
Ac-KEACGELTGTVCE-NH2 [P0, reference compound] | can barely bind to BTLA

Same assay, conditions: value as stated in running text

Molecule | Kd [µM]
CC(=O)N[C@@H](Cc1ccc(O)cc1)C(=O)N[C@@H](CCCNC(=N)N)C(=O)N[C@H](C(=O)N[C@@H](CCCCN)C(=O)N[C@@H](CCC(=O)O)C(=O)N[C@@H](C)C(=O)N[C@@H](CS)C(=O)NCC(=O)N[C@@H](CCC(=O)O)C(=O)N[C@@H](CC(C)C)C(=O)N[C@H](C(=O)NCC(=O)N[C@H](C(=O)N[C@H](C(=O)N[C@@H](CS)C(=O)N[C@@H](CCC(=O)O)C(=O)N1CCC[C@H]1C(N)=O)C(C)C)[C@@H](C)O)[C@@H](C)O)C(C)C [P0-E1] (Ac-YRVKEACGELTGTVCEP-NH2) | 9000
